Measured values: ChEMBL document CHEMBL5465560, “Selectivity Literature for EUbOPEN Chemogenomic Library” (2024)

How the values were obtained:
[1] = molecular target: Fibroblast growth factor receptor 2 (Homo sapiens) (UniProt P21802); experiment: Selectivity interaction (KinomeScan (DiscoverX)) EUB0000229b FGFR2; conditions: at 10 µM
[2] = molecular target: Angiopoietin-1 receptor (Homo sapiens) (UniProt Q02763); experiment: Selectivity interaction (KinomeScan (DiscoverX)) EUB0000229b TEK; conditions: at 10 µM
[3] = molecular target: Serine/threonine-protein kinase SIK3 (Homo sapiens) (UniProt Q9Y2K2); experiment: Selectivity interaction (KinomeScan (DiscoverX)) EUB0001079a SIK3; conditions: at 1 µM
[4] = molecular target: SRSF protein kinase 1 (Homo sapiens, UniProt Q96SB4); experiment: Selectivity interaction (Kinase panel (KiNativ target engagement assay in Jurkat cells)) EUB0001635a SRPK1; assay type: cell-based; conditions: Selectivity number of off-targets 0.0, Selectivity number of targets 233.0, Source Knowledge https://www.sciencedirect.com/science/article/pii/S2451945619300674?via%3Dihub, at 1 µM
[5] = molecular target: Sodium-dependent noradrenaline transporter (Homo sapiens, UniProt P23975); experiment: Selectivity interaction (Norepinephrine Transporter assay, human recombinant ) EUB0000877a SLC6A2
Sequence of Sodium-dependent noradrenaline transporter (P23975 whole entry): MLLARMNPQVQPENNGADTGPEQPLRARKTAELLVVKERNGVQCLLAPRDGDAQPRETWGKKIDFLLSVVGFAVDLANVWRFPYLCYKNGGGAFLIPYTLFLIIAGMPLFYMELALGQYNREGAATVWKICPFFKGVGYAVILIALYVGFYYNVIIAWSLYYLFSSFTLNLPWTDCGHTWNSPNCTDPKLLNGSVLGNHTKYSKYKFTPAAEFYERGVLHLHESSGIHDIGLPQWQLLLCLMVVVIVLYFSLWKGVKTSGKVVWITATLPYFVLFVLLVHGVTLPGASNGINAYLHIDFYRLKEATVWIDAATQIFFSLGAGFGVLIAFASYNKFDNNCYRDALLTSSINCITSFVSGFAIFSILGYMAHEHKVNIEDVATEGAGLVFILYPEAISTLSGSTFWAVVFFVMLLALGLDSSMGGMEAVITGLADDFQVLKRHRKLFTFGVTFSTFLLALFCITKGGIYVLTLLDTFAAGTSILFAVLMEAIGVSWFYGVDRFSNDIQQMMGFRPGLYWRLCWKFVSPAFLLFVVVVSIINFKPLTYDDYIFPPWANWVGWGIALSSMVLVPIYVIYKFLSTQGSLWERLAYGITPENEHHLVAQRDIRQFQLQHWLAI

[6] = molecular target: Dual specificity protein kinase CLK3 (Homo sapiens, UniProt P49761); conditions: at 10 µM
[7] = molecular target: Phosphatidylinositol 3-kinase catalytic subunit type 3 (Homo sapiens, UniProt Q8NEB9); experiment: Selectivity interaction (ActivX KiNativ screen (kinase selectivity in THP-1 cell lysates)) EUB0000639a PIK3C3; assay type: subcellular; conditions: lysate, at 1 µM
Sequence of Phosphatidylinositol 3-kinase catalytic subunit type 3 (Q8NEB9 whole entry): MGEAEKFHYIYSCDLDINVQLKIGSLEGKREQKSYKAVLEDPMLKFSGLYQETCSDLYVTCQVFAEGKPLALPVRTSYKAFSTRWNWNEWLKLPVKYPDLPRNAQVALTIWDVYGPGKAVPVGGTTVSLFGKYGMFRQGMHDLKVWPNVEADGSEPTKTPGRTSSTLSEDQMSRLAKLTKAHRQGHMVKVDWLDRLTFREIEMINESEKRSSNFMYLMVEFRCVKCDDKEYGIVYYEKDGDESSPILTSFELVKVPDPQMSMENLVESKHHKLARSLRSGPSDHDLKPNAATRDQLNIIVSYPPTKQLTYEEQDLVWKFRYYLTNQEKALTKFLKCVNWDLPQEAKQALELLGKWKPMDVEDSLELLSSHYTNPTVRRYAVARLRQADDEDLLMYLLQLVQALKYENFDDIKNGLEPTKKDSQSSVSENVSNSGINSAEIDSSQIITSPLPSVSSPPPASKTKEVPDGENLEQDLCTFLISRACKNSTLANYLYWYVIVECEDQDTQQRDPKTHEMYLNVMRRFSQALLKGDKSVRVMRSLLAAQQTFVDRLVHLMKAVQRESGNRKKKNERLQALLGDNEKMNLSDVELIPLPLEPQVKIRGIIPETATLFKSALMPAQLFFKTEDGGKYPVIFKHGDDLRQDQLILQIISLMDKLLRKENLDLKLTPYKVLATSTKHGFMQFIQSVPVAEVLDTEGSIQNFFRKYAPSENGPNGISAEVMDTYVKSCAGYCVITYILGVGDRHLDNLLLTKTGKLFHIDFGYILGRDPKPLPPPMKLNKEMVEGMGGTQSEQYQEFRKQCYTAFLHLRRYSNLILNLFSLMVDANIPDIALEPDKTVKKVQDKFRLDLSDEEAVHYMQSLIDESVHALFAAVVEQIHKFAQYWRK

[8] = molecular target: Serine/threonine-protein kinase SIK2 (Homo sapiens) (UniProt Q9H0K1); experiment: Selectivity interaction (KinomeScan (DiscoverX)) EUB0000092b SIK2; conditions: at 10 µM
[9] = molecular target: T1, Mitogen-activated protein kinase kinase kinase kinase 4 (Homo sapiens, UniProt O95819); experiment: Selectivity interaction (Ambit KINOMEscan and KiNATiv profiling in Jurkat cells) EUB0000090b MAP4K4; assay type: cell-based; conditions: at 1 µM
T1 sequence (O95819 2-1239 limits assumed): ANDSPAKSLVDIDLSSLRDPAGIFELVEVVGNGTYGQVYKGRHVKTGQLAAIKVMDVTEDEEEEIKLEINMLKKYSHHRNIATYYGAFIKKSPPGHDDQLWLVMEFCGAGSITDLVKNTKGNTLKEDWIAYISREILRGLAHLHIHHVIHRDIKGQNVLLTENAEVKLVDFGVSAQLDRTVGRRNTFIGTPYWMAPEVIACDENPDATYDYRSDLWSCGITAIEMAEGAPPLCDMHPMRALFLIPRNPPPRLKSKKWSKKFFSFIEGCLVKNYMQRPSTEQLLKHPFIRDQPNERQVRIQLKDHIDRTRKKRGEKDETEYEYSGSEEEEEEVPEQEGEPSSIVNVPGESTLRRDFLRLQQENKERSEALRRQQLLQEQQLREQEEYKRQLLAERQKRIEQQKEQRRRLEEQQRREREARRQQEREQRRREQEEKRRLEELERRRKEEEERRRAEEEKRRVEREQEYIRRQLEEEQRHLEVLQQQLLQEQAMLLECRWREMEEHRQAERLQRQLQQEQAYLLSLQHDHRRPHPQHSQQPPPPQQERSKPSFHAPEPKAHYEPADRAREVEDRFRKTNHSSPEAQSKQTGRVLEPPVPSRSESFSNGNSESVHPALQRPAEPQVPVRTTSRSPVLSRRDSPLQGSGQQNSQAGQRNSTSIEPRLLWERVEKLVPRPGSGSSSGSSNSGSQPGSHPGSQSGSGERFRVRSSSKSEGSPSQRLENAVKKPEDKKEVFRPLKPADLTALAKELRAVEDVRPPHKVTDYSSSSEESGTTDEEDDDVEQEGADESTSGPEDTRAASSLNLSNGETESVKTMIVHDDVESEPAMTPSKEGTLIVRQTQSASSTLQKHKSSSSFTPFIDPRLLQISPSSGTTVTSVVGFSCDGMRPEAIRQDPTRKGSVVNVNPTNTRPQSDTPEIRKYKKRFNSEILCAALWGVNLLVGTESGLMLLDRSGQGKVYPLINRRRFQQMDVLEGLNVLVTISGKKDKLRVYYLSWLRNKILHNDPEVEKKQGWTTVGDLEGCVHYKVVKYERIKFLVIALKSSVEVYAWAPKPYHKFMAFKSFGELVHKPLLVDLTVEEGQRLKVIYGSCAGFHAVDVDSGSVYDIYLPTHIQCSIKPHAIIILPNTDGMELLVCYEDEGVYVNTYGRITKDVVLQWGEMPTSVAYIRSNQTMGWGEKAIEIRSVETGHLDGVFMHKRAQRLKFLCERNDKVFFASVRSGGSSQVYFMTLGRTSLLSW

[10] = molecular target: Mitogen-activated protein kinase kinase kinase 1 (Homo sapiens, UniProt Q13233); experiment: Selectivity interaction (KinomeScan (DiscoverX)) EUB0000045b MAP3K1
Sequence of Mitogen-activated protein kinase kinase kinase 1 (Q13233 whole entry): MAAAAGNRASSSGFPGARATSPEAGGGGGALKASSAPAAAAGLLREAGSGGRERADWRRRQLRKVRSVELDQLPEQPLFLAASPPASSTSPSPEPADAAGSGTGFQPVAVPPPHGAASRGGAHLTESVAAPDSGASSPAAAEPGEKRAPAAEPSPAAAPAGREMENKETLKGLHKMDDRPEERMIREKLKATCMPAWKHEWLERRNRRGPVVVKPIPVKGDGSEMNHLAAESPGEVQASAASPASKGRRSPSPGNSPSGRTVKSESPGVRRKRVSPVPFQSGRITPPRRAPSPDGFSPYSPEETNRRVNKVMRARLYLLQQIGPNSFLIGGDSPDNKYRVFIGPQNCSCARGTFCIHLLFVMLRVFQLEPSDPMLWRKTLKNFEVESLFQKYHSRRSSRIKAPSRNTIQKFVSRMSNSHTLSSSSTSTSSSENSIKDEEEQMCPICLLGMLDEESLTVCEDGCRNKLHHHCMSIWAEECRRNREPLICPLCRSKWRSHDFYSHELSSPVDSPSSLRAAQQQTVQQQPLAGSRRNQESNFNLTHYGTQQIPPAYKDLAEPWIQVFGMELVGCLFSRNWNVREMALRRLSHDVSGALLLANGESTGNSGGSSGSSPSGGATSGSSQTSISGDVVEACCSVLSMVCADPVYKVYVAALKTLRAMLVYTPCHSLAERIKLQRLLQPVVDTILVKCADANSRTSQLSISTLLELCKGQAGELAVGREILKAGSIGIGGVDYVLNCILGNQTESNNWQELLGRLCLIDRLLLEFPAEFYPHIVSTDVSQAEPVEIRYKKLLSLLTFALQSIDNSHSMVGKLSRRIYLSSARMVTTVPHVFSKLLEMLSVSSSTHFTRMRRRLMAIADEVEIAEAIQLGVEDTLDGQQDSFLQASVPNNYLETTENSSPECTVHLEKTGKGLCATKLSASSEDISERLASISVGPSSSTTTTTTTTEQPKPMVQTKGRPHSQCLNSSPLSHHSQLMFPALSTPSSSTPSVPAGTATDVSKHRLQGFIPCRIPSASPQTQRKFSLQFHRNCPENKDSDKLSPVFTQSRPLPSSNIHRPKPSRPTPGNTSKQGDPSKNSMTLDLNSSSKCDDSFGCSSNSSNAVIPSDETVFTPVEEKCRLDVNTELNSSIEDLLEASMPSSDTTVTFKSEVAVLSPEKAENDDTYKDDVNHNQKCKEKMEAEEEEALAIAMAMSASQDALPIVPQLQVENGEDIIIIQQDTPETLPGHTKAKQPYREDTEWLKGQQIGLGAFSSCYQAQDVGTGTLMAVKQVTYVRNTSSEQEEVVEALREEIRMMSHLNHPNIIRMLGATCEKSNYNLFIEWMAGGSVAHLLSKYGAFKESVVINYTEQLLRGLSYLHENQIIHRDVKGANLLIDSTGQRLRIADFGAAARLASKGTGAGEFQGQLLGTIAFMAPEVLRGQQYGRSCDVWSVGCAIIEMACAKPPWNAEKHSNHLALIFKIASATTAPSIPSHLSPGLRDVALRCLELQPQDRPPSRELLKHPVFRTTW

[11] = molecular target: T2, Tyrosine-protein kinase TXK (Homo sapiens) (UniProt P42681); experiment: Selectivity interaction (KinomeScan (DiscoverX)) EUB0000045b TXK
T2 sequence (whole entry): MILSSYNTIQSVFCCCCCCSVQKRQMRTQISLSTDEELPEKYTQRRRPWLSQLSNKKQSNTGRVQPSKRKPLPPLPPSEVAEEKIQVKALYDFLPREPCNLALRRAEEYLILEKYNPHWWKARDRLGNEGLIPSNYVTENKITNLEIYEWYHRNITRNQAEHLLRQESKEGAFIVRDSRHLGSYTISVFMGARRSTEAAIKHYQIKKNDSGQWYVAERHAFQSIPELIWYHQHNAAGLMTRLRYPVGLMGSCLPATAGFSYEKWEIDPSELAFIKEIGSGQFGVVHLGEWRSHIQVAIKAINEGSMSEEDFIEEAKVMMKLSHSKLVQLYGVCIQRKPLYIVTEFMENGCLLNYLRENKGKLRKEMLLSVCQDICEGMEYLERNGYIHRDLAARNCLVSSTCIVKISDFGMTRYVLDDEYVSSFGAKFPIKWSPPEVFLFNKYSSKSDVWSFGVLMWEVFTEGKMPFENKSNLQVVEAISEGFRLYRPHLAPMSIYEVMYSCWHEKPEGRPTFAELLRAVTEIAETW

[12] = molecular target: Ribosomal protein S6 kinase alpha-2 (Homo sapiens) (UniProt Q15349); experiment: Selectivity interaction (KinomeScan (DiscoverX)) EUB0000618a RPS6KA2; conditions: at 10 µM
Sequence of Ribosomal protein S6 kinase alpha-2 (Homo sapiens) (Q15349 whole entry): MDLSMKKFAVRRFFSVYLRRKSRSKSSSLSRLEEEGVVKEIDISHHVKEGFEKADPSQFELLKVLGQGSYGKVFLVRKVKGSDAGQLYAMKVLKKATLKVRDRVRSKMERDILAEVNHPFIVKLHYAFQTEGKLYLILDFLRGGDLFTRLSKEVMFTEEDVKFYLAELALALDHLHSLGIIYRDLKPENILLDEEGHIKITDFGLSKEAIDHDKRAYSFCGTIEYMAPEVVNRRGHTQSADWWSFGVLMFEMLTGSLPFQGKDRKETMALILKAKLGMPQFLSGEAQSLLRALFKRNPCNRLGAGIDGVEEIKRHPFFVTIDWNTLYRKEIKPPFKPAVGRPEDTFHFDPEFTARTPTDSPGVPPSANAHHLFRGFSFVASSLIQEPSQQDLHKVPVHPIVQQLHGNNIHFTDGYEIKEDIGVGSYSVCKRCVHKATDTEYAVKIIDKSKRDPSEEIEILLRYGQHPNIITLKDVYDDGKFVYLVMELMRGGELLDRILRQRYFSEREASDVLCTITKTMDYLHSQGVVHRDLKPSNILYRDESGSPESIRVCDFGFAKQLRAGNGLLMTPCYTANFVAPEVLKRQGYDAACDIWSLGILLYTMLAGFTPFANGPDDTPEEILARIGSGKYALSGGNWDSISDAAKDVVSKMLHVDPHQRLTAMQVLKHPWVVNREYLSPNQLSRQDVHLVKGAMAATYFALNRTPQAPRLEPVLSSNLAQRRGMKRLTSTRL

[13] = Selectivity interaction (KinomeScan (DiscoverX)) EUB0001619a PKNB; conditions: at 1 µM
[14] = molecular target: T3, Serine/threonine-protein kinase Sgk1 (Homo sapiens) (UniProt O00141); experiment: Selectivity interaction (Upstate Kinase Profiler service (Millipore)) EUB0000056c SGK1; conditions: at 1 µM
T3 sequence (whole entry): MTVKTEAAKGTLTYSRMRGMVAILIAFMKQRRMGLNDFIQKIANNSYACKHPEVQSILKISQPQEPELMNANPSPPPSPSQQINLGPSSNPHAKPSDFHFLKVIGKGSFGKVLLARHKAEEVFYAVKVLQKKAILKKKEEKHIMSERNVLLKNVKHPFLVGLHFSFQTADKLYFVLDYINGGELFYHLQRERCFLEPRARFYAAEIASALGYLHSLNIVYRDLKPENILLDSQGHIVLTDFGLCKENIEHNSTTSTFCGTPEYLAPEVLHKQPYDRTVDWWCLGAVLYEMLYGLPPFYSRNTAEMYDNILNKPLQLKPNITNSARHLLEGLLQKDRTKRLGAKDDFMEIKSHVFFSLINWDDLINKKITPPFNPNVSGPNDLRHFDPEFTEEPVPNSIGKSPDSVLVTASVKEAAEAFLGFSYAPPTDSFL

[15] = molecular target: T4, cGMP-dependent protein kinase 2 (Homo sapiens) (UniProt Q13237); experiment: Selectivity interaction (KinomeScan (DiscoverX)) EUB0000655a PRKG2; conditions: at 10 µM
T4 sequence (whole entry): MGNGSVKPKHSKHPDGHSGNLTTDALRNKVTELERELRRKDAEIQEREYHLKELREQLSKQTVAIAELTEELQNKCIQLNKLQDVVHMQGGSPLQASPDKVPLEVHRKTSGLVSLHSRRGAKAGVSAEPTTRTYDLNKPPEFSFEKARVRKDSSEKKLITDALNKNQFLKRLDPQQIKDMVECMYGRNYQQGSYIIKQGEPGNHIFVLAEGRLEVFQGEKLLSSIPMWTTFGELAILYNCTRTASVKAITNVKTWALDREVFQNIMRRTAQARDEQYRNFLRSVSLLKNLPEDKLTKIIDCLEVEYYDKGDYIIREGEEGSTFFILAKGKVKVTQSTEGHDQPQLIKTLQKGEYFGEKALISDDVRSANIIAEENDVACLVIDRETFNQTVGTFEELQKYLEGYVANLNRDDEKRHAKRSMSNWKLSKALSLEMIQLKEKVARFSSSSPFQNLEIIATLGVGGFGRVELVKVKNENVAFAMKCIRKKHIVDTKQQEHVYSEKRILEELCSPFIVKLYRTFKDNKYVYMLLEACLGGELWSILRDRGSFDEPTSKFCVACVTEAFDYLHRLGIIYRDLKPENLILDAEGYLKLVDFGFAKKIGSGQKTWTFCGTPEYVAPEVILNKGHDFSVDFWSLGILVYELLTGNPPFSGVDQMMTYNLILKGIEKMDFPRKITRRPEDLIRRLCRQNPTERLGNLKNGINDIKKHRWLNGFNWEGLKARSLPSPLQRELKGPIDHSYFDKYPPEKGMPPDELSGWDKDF

[16] = molecular target: Ribosomal protein S6 kinase alpha-2 (Homo sapiens) (UniProt Q15349); experiment: Selectivity interaction (SelectScreen profiling (Invitrogen)) EUB0000607a RPS6KA2; conditions: at 2 µM
[17] = molecular target: T1, Mitogen-activated protein kinase kinase kinase kinase 4; experiment: Selectivity interaction (ProQinase) EUB0000171b MAP4K4

**Q.** What does the source list for COc1cc(N(C)c2ccnc3ccc(C(F)(F)F)cc23)cc(OC)c1OC?
**A.** % binding [1]: 100%; % binding [2]: 72%

**Q.** Which % of control [3] does the source give for Nc1cnc(N2CCc3cc(S(=O)(=O)Nc4c(F)cc(Cl)cc4F)cc(N4CCCC4=O)c32)nc1 [TP-020n] here?
**A.** Its % of control is 83%.

**Q.** Which % of engagement [4] does the source give for C=CC(=O)Nc1ccc(C(=O)Nc2[nH]nc3c2CN(C(=O)N[C@H](CN(C)C)c2ccccc2)C3(C)C)cc1 here?
**A.** The % of engagement was 6%.

**Q.** Which IC50 [5] does the source give for CCC(=O)N1CC[C@H](Nc2ncnc3c2CN(c2cnc(OC)c(C(F)(F)F)c2)CC3)C1 [LENIOLISIB] here?
**A.** Its IC50 is greater than 30 µM.

**Q.** Which % of control [6] does the source give for CCN(CC)CCCCNc1ncc2cc(-c3cc(OC)cc(OC)c3)c(NC(=O)NC(C)(C)C)nc2n1 here?
**A.** The % of control was 100%.

**Q.** Which % of inhibition [7] does the source give for CC[C@@H]1[C@H](F)C(=O)N[C@@H]1COc1nccc2cc(C(N)=O)c(OC)cc12 [ZIMLOVISERTIB] here?
**A.** Its % of inhibition is -13.7%.

**Q.** For CCC(=O)N1CCN(c2ccc(-n3c(=O)ccc4cnc5ccc(-c6cnc7ccccc7c6)cc5c43)cc2C(F)(F)F)CC1, which % of control [8] is on record?
**A.** The % of control was 23%.

**Q.** With CN(C)C/C=C/C(=O)Nc1ccc(C(=O)N2CCCC(Nc3ncc(Cl)c(-c4c[nH]c5ccccc45)n3)C2)cc1 (stereo not given) as the compound, how does the % of control [9] read?
**A.** The % of control was 78%.

**Q.** Which % of control ([10]; at 1 µM) does the source give for C=CC(=O)Nc1cc(-n2c(=O)ccc3cnc4ccc(-c5ccc(NS(C)(=O)=O)cc5)cc4c32)ccc1C here?
**A.** Its % of control is 100%.

**Q.** And the % of control ([10]; at 10 µM)?
**A.** Its % of control is 100%.

**Q.** What about the % of control ([11]; at 1 µM) of the same compound?
**A.** Its % of control is 25%.

**Q.** And the % of control ([11]; at 10 µM)?
**A.** The % of control was 2.6%.

**Q.** With O[C@H]1CC[C@H](Nc2ncc3nc(Nc4c(F)cc(F)cc4F)n([C@H]4CCOC4)c3n2)CC1 as the compound, how does the % of control [12] read?
**A.** Its % of control is 91%.

**Q.** With N#Cc1cccc(-c2c[nH]c3ncnc(N4CCOCC4)c23)c1 as the compound, how does the % of control [13] read?
**A.** Its % of control is 47%.

**Q.** For Cc1ccc(-c2ccc3c(ccc4sc5c(c43)NC[C@@H](C)NC5=O)n2)cn1, which % of inhibition [14] is on record?
**A.** The % of inhibition was 4%.

**Q.** For CN(C)CCOc1ccc(-c2nc(-c3ccncc3)c(-c3ccc4c(c3)CC/C4=N\O)[nH]2)cc1, which % of control [15] is on record?
**A.** The % of control was 29%.

**Q.** Which % of inhibition [16] does the source give for CNC(=O)Nc1ccc(-c2nc(N3CC4CCC(C3)O4)c3cnn(C4CCC5(CC4)OCCO5)c3n2)cc1 here?
**A.** The % of inhibition was -1%.

**Q.** With C=CC(=O)Nc1cccc(C(=O)Nc2ccc(Nc3cc(-c4[nH]c(SC)nc4C)ccn3)cc2)c1 as the compound, how does the % of control ([17]; at 1 µM) read?
**A.** The % of control was 79%.

**Q.** What about the % of control ([17]; at 5 µM) of the same compound?
**A.** The % of control was 55%.
